Test results reported in patent EP0171342A1, “Substituted 2-(1-amino-akylidenyl)1,3-indane diones, process for their preparation and their therapeutical use” (priority 1984, dated 1986).
Converted amounts (≈) assume the structure as drawn. Read-outs that look alike come from different tables or passages of the source.

What was measured:
souris = experiment: Acute toxicity (mortality, LD50) in mice; assay type: in vivo; conditions: mouse
[1] = system: rat soumis à une surcharge hydrique; experiment: Diuretic activity in rats given a water overload, oral; assay type: in vivo; conditions: rat, water overload, oral
Procedure, shortened: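 Oral dosing (5–80 mg/kg) to rats under water overload, or to rats and mice under saline overload. Urine volume and excreted sodium and potassium measured over 6 h, expressed as change versus control animals; Na/K ratio also derived.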

[2] = system: rat Wistar soumis à une surcharge saline; experiment: Diuretic activity in selected Wistar rats given a saline overload (modified Wiebelhaus test); assay type: in vivo
Procedure, shortened: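 Selected Wistar rats under saline overload (modified Wiebelhaus test) received compound at 20 mg/kg. Urine volume and sodium excretion were measured over 6 h, expressed as % increase, with Na/K ratio also assessed.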

[3] = system: oedème induit par l'injection intraplantaire de carragénine chez le rat; experiment: Anti-inflammatory activity: carrageenan paw oedema in rats; assay type: in vivo; conditions: oral 1 h before carrageenan, measured 3 h after, dose 10b mg/kg [sic]
Description: L'activité antiinflammatoire a été déterminée chez le rat par la mesure de l'inhibition de l'oedème induit par l'injection intraplantaire de 0,1 ml d'une suspension à 1% de carragénine chez le rat. Les produits à tester sont administrés par voie orale lh avant l'injection de carragénine et la mesure est réalisée 3h après cette injection. Les COR3789, COR3792, COR4003, COR4008 et COR4010 administrés à 10b mg/kg entrainent respectivement 43, 42, 41, 38 et 39% d'inhibition. Administré à 200 mg/kg, le COR3773 entraine 53% d'inhibition. L'aspirine administrée dans les mêmes conditions à 150 mg/kg entraine 40% d'inhibition de l'oedème.

[4] = system: poumon de cobaye isolé perfusé; experiment: Bronchodilator activity: isolated perfused guinea pig lung contracted by methacholine; conditions: flow of Tyrode solution, lung contracted by 0,05 microg/ml methacholine; read-out: concentration qui augmente ce débit de 50%
[5] = system: segments d'iléon de cobaye isolés; experiment: Anticholinergic activity: acetylcholine-induced contractions of isolated guinea pig ileum; conditions: Cavia porcellus; contractions induced by 0,1 microg/ml acetylcholine; read-out: concentration qui inhibe ces contractions de 80%
Excerpt: L'activité anticholinergique a été appréciée par la mesure des contractions induites par 0,1 microg/ml d'acétylcholine sur des segments d'iléon de cobaye isolés. Les COR3760, COR3789, COR3792, COR4003, COR4008, COR4010, COR4014 utilisés respectivement aux concentrations de 50, 25, 25, 50, 25, 10, 25 microg/ml inhibent ces contractions de 80%.

[6] = biological target: oreillettes droites de cobaye (Cavia porcellus, UniProt P47747); experiment: Anti-H2 activity: histamine-induced chronotropic effect on unstimulated guinea pig right atria
oreillettes droites de cobaye, sequence (P47747 whole entry): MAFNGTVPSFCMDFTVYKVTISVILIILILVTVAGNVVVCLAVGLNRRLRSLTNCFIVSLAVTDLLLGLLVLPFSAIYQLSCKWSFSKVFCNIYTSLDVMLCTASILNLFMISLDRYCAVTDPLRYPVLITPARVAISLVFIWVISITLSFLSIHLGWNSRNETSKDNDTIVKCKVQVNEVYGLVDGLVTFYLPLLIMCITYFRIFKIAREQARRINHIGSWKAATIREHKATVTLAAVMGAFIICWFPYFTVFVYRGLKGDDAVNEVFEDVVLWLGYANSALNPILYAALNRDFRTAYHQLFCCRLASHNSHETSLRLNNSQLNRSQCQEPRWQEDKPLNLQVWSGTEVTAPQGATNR

[7] = system: segments isolés d'iléon de cobaye; experiment: Antihistamine activity: histamine-induced contraction of isolated guinea pig ileum; conditions: 50 microg/ml, response induced by 0,5 microg/ml histamine
Excerpt: L'activité antihistaminique a été appréciée in vitro par l'inhibition de la réponse contractile de segments isolés d'iléon de cobaye induite par 0,5 microg/ml d'histamine.

SMILES: CCC(NC)=C1C(=O)c2ccccc2C1=O [COR4003, (Méthylamino-1 propylidényl)-2 indanedione-1,3]
- mortalité (souris; intraperitoneal, 200 mg/kg): aucune mortalité
- mortalité (souris; oral, 300 mg/kg): aucune mortalité
- facteur multipliant l'excrétion sodique ([1]; 10 mg/kg): 2,4
- response vs control in vivo at 20 mg/kg ([1]; 20 mg/kg, read-out: facteur multipliant l'excrétion urinaire du sodium): 720%
- change in vivo at 20 mg/kg ([2]; 6 h, read-out: augmentation de l'excrétion urinaire volumétrique mesurée au bout de 6 heures): 56%
- change in vivo at 20 mg/kg ([2]; read-out: augmentation de l'excrétion urinaire du sodium): 56%
- inhibition de l'oedème [3]: 41%
- EC50 [4]: 10 µg/mL (≈ 46.5 µM)
- IC80 [5]: 50 µg/mL (≈ 232 µM)
- effet chronotrope négatif intrinsèque ([6]; at the concentration inhibiting the histamine effect by 50 % (COR4003 100, COR4011 50 microg/ml)): ne présentant pas d'effet chronotrope négatif intrinsèque
- IC50 ([6]; chronotropic effect induced by 5 microg/ml histamine, read-out: concentration qui inhibe de 50 % cet effet chronotrope (converted)): 465 µM
- inhibition de la réponse contractile [7]: inhibe cette réponse
